The values that follow come from EP0970046B1, “N-HYDROXY-2-(ALKYL, ARYL, OR HETEROARYL SULFANYL, SULFINYL OR SULFONYL)-3-SUBSTITUTED ALKYL, ARYL OR HETEROARYLAMIDES AS MATRIX METALLOPROTEINASE INHIBITORS” (Wyeth Holdings Corporation, priority 1997, dated 1998).

In the first experiment the target is T1, TACE (Homo sapiens, UniProt P78536).
T1 construct: purchased Immunex
T1 sequence (P78536 215-824): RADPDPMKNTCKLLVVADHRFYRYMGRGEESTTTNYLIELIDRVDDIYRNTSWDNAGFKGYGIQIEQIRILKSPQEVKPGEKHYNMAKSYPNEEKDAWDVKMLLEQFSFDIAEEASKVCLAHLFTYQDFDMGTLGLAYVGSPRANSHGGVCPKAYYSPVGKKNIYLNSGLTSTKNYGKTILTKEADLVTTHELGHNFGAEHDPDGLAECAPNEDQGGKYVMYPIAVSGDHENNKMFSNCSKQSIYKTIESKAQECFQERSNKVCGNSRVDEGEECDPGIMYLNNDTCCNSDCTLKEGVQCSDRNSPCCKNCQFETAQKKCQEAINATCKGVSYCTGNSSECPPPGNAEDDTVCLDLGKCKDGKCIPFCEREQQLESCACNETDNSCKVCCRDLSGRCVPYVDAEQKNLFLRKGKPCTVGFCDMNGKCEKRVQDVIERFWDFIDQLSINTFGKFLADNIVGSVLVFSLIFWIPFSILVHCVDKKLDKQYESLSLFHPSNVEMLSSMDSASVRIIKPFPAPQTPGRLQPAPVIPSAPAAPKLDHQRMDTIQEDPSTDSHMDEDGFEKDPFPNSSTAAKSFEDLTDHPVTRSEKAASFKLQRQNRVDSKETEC
The experiment is described as follows: Procedure for Measuring TACE Inhibition. It is filed as biochemical. Particulars: 1 µM; Examples 169-240. Here is the method: Using 96-well black microtiter plates, each well receives a solution composed of 10 µL TACE (Immunex, final concentration 1µg/mL), 70µL Tris buffer, pH 7.4 containing 10% glycerol (final concentration 10 mM), and 10 µL of test compound solution in DMSO (final concentration 1µM, DMSO concentration <1%) and incubated for 10 minutes at room temperature. The reaction is initiated by addition of a fluorescent peptidyl substrate (final concentration 100 µM) to each well and then shaking on a shaker for 5 sec. The reaction is read (excitation 340 nm, emission 420 nm) for 10 min. and the increase in fluorescence over time is plotted as a linear line. The slope of the line is calculated and represents the reaction rate. The linearity of the reaction rate is confirmed (r^2 >0.85). The mean (x±sem) of the control rate is calculated and compared for statistical significance (p<0.05) with drug-treated rates using Dunnett's multiple comparison test.
As to “2,5-Dichloro-thiophene-3-sulfonic acid 4-(1-hydroxycarbamoyl-heptylsulfinyl)-hydroxyamide [Example 236]”, the “TACE % inhibition at 1 µM” value worked out at 35%.

As for “3-(1-Hydroxycarbamoyl-heptylsulfanyl)-benzoic acid hydroxyamide [Example 184]”, the “TACE % inhibition at 1 µM” value was 24.8%.

Turning to “3-(1-Hydroxycarbamoyl-heptylsulfinyl)-benzoicacid hydroxyamide [Example 188]”, the “TACE % inhibition at 1 µM” value was found to be 16.2%.

With `CCCCCCC(Sc1ccc(OCCCC)cc1)C(=O)NO` (stereo not shown) [Example 200, 2-(4-Butoxy-benzenesulfanyl)-octanoic acid hydroxyamide], the “TACE % inhibition at 1 µM” value was 37.9%.

Take `CCCCCCC(Sc1ccc(OCCN2CCNCC2)cc1)C(=O)NO` (stereo not shown) [Example 201, 2-[4-(2-Piperazine-1-yl-ethoxy)-benzenesulfanyl]-octanoic acid hydroxyamide]: the “TACE % inhibition at 1 µM” value was determined as 50.9%.

The experiment is the same for the next values; noted with them: Examples 169-240; read-out: TACE IC50.
As to `CCCCCCC(C(=O)NO)[S+]([O-])c1ccc(OC2CCN(C)C2)cc1` (stereo not shown) [Example 215, 2-[4-(1-Methyl-pyrrolidin-3-yloxy)-benzenesulfinyl]-octanoic acid hydroxyamide], the IC50 came to 895 nM.

Take `CCCCCCC(C(=O)NO)S(=O)(=O)c1ccc(OC2CCN(C)C2)cc1` (stereo not shown) [Example 218, 2-[4-(1-Methyl-pyrrolidin-3-yloxy)-benzenesulfonyl]-octanoic acid hydroxyamide]: the IC50 came out at 380 nM.

On to `CCCCCCC(C(=O)NO)[S+]([O-])c1ccc(-c2ccc(Cl)cc2)cc1` (stereo not shown) [Example 221, 2-(4'-Chloro-biphenyl-4-sulfinyl)-octanoic acid hydroxyamide], for which the IC50 worked out at 146 nM.

`CCCCCCC(C(=O)NO)[S+]([O-])c1ccc(-c2ccc(Cl)s2)cc1` (stereo not shown) [Example 222, 2-[4-(5-Chloro-thiophen-2-yl)-benzenesulfinyl]-octanoic acid hydroxyamide]: the IC50 was 212 nM.

The experiment is the same for the next values; noted with them: read-out: TACE % inhibition at 1 µM; 1 µM; Examples 169-240.
What is called inhibition is the drop in the measured response relative to a control, in per cent. Consider `CCCCCCC(Sc1ccc(OCCCCCO)cc1)C(=O)NO` (stereo not shown) [Example 202, 2-[4-(5-Hydroxy-pentyloxy)-phenylsulfanyl]-octanoic acid hydroxyamide], for which the inhibition at 1 µM was found to be 10.6%.

For the compound `CCCCCCC(C(=O)NO)[S+]([O-])c1ccc(OCc2ccccc2)cc1` (stereo not shown) [Example 204, 2-(4-Benzyloxy-phenylsulfinyl)-octanoic acid hydroxyamide], the inhibition at 1 µM was 7.75%.

In the case of `CCCCCCC(C(=O)NO)[S+]([O-])c1ccc(OCCCC)cc1` (stereo not shown) [Example 205, 2-(4-Butoxy-benzenesulfinyl)-octanoic acid hydroxyamide], the inhibition at 1 µM is 84%.

Consider `CCCCCCC(C(=O)NO)[S+]([O-])c1ccc(OCCCc2ccccn2)cc1` (stereo not shown) [Example 207, 2-[4-(3-Pyridin-2-yl-propoxy)-benzenesulfinyl]-octanoic acid hydroxyamide], for which the inhibition at 1 µM was -6.3%.

As for `CCCCCCC(C(=O)NO)S(=O)(=O)c1ccc(OCc2ccccc2)cc1` (stereo not shown) [Example 208, 2-(4-Benzyloxy-phenylsulfonyl)-octanoic acid hydroxyamide], the inhibition at 1 µM was 67.7%.

Turning to `CCCCCCC(C(=O)NO)S(=O)(=O)c1ccc(OCCCC)cc1` (stereo not shown) [Example 209, 2-(4-Butoxy-benzenesulfonyl)-octanoic acid hydroxyamide], the inhibition at 1 µM was determined as 31.2%.

In the case of `CCCCCCC(C(=O)NO)S(=O)(=O)c1ccc(OCCCc2ccccn2)cc1` (stereo not shown) [Example 211, 2-[4-(3-Pyridin-2-yl-propoxy)-benzenesulfonyl]-octanoic acid hydroxyamide], the inhibition at 1 µM was determined as 20.7%.

As to `CCCCCCC(C(=O)NO)[S+]([O-])c1ccc(OC2CCN(C)C2)cc1` (stereo not shown) [Example 215, 2-[4-(1-Methyl-pyrrolidin-3-yloxy)-benzenesulfinyl]-octanoic acid hydroxyamide], the inhibition at 1 µM is 60.1%.

Regarding `CCCCCCC(C(=O)NO)S(=O)(=O)c1ccc(OC2CCN(C)C2)cc1` (stereo not shown) [Example 218, 2-[4-(1-Methyl-pyrrolidin-3-yloxy)-benzenesulfonyl]-octanoic acid hydroxyamide], the inhibition at 1 µM amounted to 68.7%.

`CCCCCCC(C(=O)NO)S(=O)(=O)c1ccc(OC(CC)CC)cc1` (stereo not shown) [Example 219, 2-[4-(1-Ethyl-propoxy)-benzenesulfonyl]-octanoic acid hydroxyamide]: the inhibition at 1 µM stood at 7.3%.

In the case of `CCCCCCC(C(=O)NO)[S+]([O-])c1ccc(-c2ccc(Cl)cc2)cc1` (stereo not shown) [Example 221, 2-(4'-Chloro-biphenyl-4-sulfinyl)-octanoic acid hydroxyamide], the inhibition at 1 µM was 98.9%.

Regarding `CCCCCCC(C(=O)NO)[S+]([O-])c1ccc(-c2ccc(Cl)s2)cc1` (stereo not shown) [Example 222, 2-[4-(5-Chloro-thiophen-2-yl)-benzenesulfinyl]-octanoic acid hydroxyamide], the inhibition at 1 µM came to 89.3%.

The experiment is the same for the next values; noted with them: read-out: TACE % inhibition at 1 micromolar.
With `COc1ccc([S+]([O-])C(C(=O)NO)c2ccccc2)cc1` (stereo not shown) [Example 8, N-Hydroxy-2-(4-methoxy-benzenesulfinyl)-2-phenyl-acetamide], the inhibition at 1 µM was found to be 47%.

For the compound `COc1ccc(S(=O)(=O)C(Cc2ccccc2)C(=O)NO)cc1` (stereo not shown) [Example 9, N-Hydroxy-2-(4-methoxy-benzenesulfonyl)-3-phenyl-propionamide], the inhibition at 1 µM turned out to be 20.3%.

For `COc1ccc(S(=O)(=O)C(C)(Cc2ccc(OCCN(C(C)C)C(C)C)cc2)C(=O)NO)cc1` (stereo not shown) [Example 20, N-Hydroxy-2-(4-methoxy-benzenesulfonyl)-2-methyl-3-[4-(2-N,N-diisopropylamino-ethoxy)-phenyl]-propionamide], the inhibition at 1 µM turned out to be 31%.

Consider `CCN(CC)CCOc1ccc(CC(C)(C(=O)NO)S(=O)(=O)c2ccc(OC)cc2)cc1` (stereo not shown) [Example 21, N-Hydroxy-2-(4-methoxy-benzenesulfonyl)-2-methyl-3-[4-(2-N,N-diethylamino-ethoxy)-phenyl]-propionamide], for which the inhibition at 1 µM is 39%.

As to `COc1ccc(CS(=O)(=O)C(C)(Cc2ccccc2)C(=O)NO)cc1` (stereo not shown) [Example 41, N-Hydroxy-2-(4-methoxy-phenylmethanesulfonyl)-2-methyl-3-phenyl propionic acid hydroxamide], the inhibition at 1 µM was 15.5%.

In the case of `C=CCC(CC=C)(C(=O)NO)S(=O)(=O)c1ccc(OC)cc1` [Example 58, 2-allyl-2-(4-methoxy-benzenesulfonyl)-pent-4-enoic acid hydroxyamide], the inhibition at 1 µM was 7.7%.

Take `COc1ccc(S(=O)(=O)C(C)(Cc2cccnc2)C(=O)NO)cc1` (stereo not shown) [Example 61, N-hydroxy-2-(4-methoxy-benzenesulfonyl)-2-methyl-3-pyridin-3-yl-propionamide]: the inhibition at 1 µM amounted to 17.2%.

In the case of `CCN1CCC(C(=O)NO)(S(=O)(=O)c2ccc(OC)cc2)CC1` [Example 95, 1-Ethyl-4-(4-methoxy-benzenesulfonyl)-piperidine-4-carboxylic acid hydroxyamide], the inhibition at 1 µM is 25.4%.

For the compound `COc1ccc(S(=O)(=O)C2(C(=O)NO)CCN(C)CC2)cc1` [Example 97, 1-Methyl-4-(4-methoxy-benzenesulfonyl)-piperidine-4-carboxylic acid hydroxyamide], the inhibition at 1 µM came to 20.2%.

As for `CCCCOc1ccc(S(=O)(=O)C2(C(=O)NO)CCN(Cc3ccc(F)cc3)CC2)cc1` [Example 100, 1-(4-Fluoro-benzyl)-4-(4-butoxy-benzenesulfonyl)-piperidine-4-carboxylic acid hydroxyamide], the inhibition at 1 µM came out at 39.5%.

Still in this experiment, the particulars now being: read-out: TACE IC 50.
On to `COc1ccc(S(=O)(=O)C(Cc2ccc3ccccc3c2)C(=O)NO)cc1` (stereo not shown) [Example 40, N-Hydroxy-2-(4-methoxy-benzenesulfonyl)-3-naphthalen-2-yl-propionamide], for which the IC50 came to 160 nM.

With `CCCCCCCCC(Cc1cccnc1)(C(=O)NO)S(=O)(=O)c1ccc(OC)cc1` (stereo not shown) [Example 62, 2-(4-Methoxy-benzenesulfonyl)-2-pyridin-3-ylmethyl-decanoic acid hydroxyamide], the IC50 amounted to 669 nM.

In the case of `COc1ccc(CN2CCC(C(=O)NO)(S(=O)(=O)c3ccc(OC)cc3)CC2)cc1` [Example 101, 4-(4-methoxy-benzenesulfonyl)-1-(4-methoxy-benzyl)-piperidine-4-carboxylic acid hydroxyamide], the IC50 came out at 197 nM.
